# Structures can show the parent of a compound that is named as a salt. Where two headings read alike, the source gives them in different places. Square brackets hold non-standard residues; d marks the D form. Peptide text beside a SMILES is read from it. 1Nal = N[C@@H](Cc1cccc2ccccc12)C(=O)O; Dmt = Cc1cc(O)cc(C)c1C[C@H](N)C(=O)O
# Key:
# male Sprague–Dawley rats [1] = conditions: cited from earlier work; for Antinociception, warm water tail flick test: icv, male Sprague–Dawley rats, ref Imam et al. [19]
# DOP receptor [2] = conditions: inhibition of forskolin-stimulated cAMP formation, HEK cells stably expressing DOP receptor, cited from earlier work
# male Sprague–Dawley rats [3] = conditions: cited from earlier work
# male Sprague–Dawley rats [4] = conditions: cited from earlier work; remark: listed apart in the source
# male Sprague–Dawley rats [5] = conditions: cited from earlier work; remark: listed apart in the source
# MOP receptor [6] = conditions: inhibition of forskolin-stimulated cAMP formation, HEK cells stably expressing MOP receptor; ref Cai et al. [18]; cited from earlier work
# KOP receptor [7] = conditions: inhibition of forskolin-stimulated cAMP formation, HEK cells stably expressing KOP receptor; ref Cai et al. [18]; cited from earlier work
# mice = conditions: sc, ref [27]; cited from earlier work
# male Sprague–Dawley rats [8] = assay: Warm-water tail flick test (antinociception), icv dosing; format: in vivo, rat; conditions: for Mean (± SEM) peak tail flick latency: baseline latency 2.0–3.5 s; for Mean (± SEM) ΔLatency-AUC: vehicle 0.8 (± 0.3) s.h
# Experimental: To assess a role for opioid receptors in mediating antinociception, rats were dosed with naloxone (10 mg/kg; sc) 10 min prior icv dosing with CYX-5 at the highest dose tolerated (20 nmol).
# (§1) Data are presented as mean ± standard error of mean (SEM). One-way analysis of variance was used for analysing the following data: ΔLatency-AUC of warm water tail flick data (Fig. 2B, D); % Small intestinal transit of charcoal meal data and % change of transit relative to vehicle (Fig. 3A, B); AUC of % rats with diarrhoea (% of vehicle control) (Fig. 4B), Cumulative stool weight difference from vehicle (4 h) (Fig. 4D); ΔMV-AUC, ΔRF-AUC and ΔTv-AUC (Fig. 6A–F). Two-way analysis of variance was used for the following data: MV, RF and Tv data for 2 h WPB test (Fig. 5A–F). The analyses were implemented in GraphPad Prism v9.0.0 (GraphPad Software, Inc., La Jolla, CA USA). Dunnett's multiple comparison test was used for post hoc analysis of all the data. For individual animals in the tail flick test, the increase in tail flick latency above baseline (ΔLatency) was calculated for every assessment time point, and the areas under the ΔLatency versus time curve (AUC) values were estimated using trapezoidal integration as using GraphPad™ Prism v9.0.0. For the castor oil-induced diarrhoea test, the percentage of rats with diarrhoea (%AD) was determined for each time point and plotted against time for individual animals. The areas under the curve (%AD-AUC) values were calculated using GraphPad™ Prism v9.0.0. A value of p ≤ 0.05 was the statistical significance criterion. For one-way ANOVA, F values are expressed as Fdf of treatment, residual. For two-way ANOVA, F values are expressed as Fdf of treatment, time, interaction/residual.
# male Sprague–Dawley rats [9] = assay: GI motility, charcoal meal test, icv dosing; format: in vivo, rat; conditions: for Mean (± SEM) % small intestinal transit (%SIT): n = 6, vehicle 77.3 (± 1.9) %
# Experimental: One hour later, the rats were euthanised and the intestine was collected for measurement of the following: (i) the distance from the pylorus to the front edge of the charcoal meal; (ii) the distance between the pylorus and the distal edge of the ileum. The intestinal transit index was determined by dividing measurement (i) by measurement (ii).
# male Sprague–Dawley rats [10] = assay: Inhibition of castor oil-induced diarrhoea, icv dosing; format: in vivo, rat; conditions: for Mean (± SEM) %AUC of % rats with diarrhoea (% of vehicle control): 8 h, vehicle set at 100%; for Cumulative stool weight-area under the curve (CSW-AUC): at 4 h, vehicle 18.3 (± 1.1) g.h
# Experimental: After an overnight fast (16 h), the pre-dosing stool consistency of individual rats was recorded. […] The weight and consistency of faeces were recorded pre-dose and hourly for 8 h post-dosing for individual animals. The scoring criteria for faeces consistency were as follows: 0 = normal faeces, 1 = well-shaped wet faeces, 2 = shapeless faeces, 3 = shapeless faeces with large amounts of liquid. A score of ≥ 2 for both weight and consistency was defined as diarrhoea.
# as §1
# male Sprague–Dawley rats [11] = assay: Respiratory function by whole body plethysmography, icv dosing; format: in vivo, rat
# Experimental: After acclimatisation for 30–60 min, respiratory parameters were recorded for 45 min pre-dosing (three 15 min cycles) and for 2 h post-dosing (eight 15 min cycles). In each cycle, rats breathed normal air for 1 min, followed by a hypercapnic gas mixture (8% CO2, 21% O2 and 71% N2) for 5 min and then a 9 min recovery period breathing normal air. Respiratory parameters recorded by the blinded tester (M.Z.I.) included minute ventilation (MV), respiratory frequency (RF) and tidal volume (Tv) using the BioSystem XA software. The baseline was calculated as the mean difference in MV (ΔMV), RF (ΔRF) and Tv (ΔTv) during the pre-dosing exposure to normal air and the hypercapnic gas mixture.
# DOP receptor [12] = conditions: mean ± SEM; ref [18]; cited from earlier work
# From the text: (§2) By comparison, CYX-5 is a truncated analogue of EM-2 (H-Dmt-Pro-Nal-NH2; Nal: 3-(1-naphthyl)-L-alanine) (Fig. 1). In vitro, CYX-5, like CYX-6, was a G-protein biassed ligand at MOP, DOP and KOP receptors. […] In the forskolin-stimulated cAMP assay in HEK-cells expressing murine MOP, D ...
# MOP receptor [13] = conditions: mean ± SEM; ref [18]; cited from earlier work
# From the text: as §2
# MOP receptor [14] = conditions: guinea-pig small intestinal myenteric plexus muscle preparation; ref [18]; cited from earlier work
# MOP receptor [15] = conditions: in vitro; ref [18]; cited from earlier work
# DOP receptor [16] = conditions: in vitro; ref [18]; cited from earlier work
# KOP receptor [17] = conditions: in vitro; ref [18]; cited from earlier work
# [18] = Metabolic stability using rat liver microsomes
# male Sprague–Dawley rats [19] = assay: Tolerability / neuro-excitatory clinical signs after icv dosing
# [20] = icv 100 nmol, n = 6, biphasic profile, data re-used, ref [19]
# [21] = icv 100 nmol, data re-used, ref [19]
# [22] = icv, male Sprague–Dawley rats, ref Imam et al. [19], Kuo et al. [23]
# [23] = icv, male Sprague–Dawley rats, √/X not defined
molecule,measurement,setting,value
"CN1CC[C@]23c4c5ccc(O)c4O[C@H]2[C@@H](O)C=C[C@H]3[C@H]1C5 [morphine, morphine hydrochloride]","First antinociceptive peak tail flick latency, mean (± SEM)",male Sprague–Dawley rats [1]; [20],8.9 (± 0.5) s
same,"Second antinociceptive peak tail flick latency, mean (± SEM)",male Sprague–Dawley rats [1]; [20],10.0 (± 0.0) s
same,"Antinociception (tail flick), in words",male Sprague–Dawley rats [1]; [21],pronounced antinociception
same,Mean time to first peak effect (tail flick),male Sprague–Dawley rats [1]; [21],0.75 h
same,Mean time to second peak effect (tail flick),male Sprague–Dawley rats [1]; [21],1.5 h
same,"Antinociception, warm water tail flick test",male Sprague–Dawley rats [1]; Kuo et al. [23],"√^b,d"
same,"In vitro agonist or antagonist activity, DOP receptor",DOP receptor [2]; ref Kuo et al. [36],Agonist^c
same,Mean (± SEM) % small intestinal transit (%SIT),"male Sprague–Dawley rats [3]; icv 100 nmol, n = 12, data re-used, ref [19]",22.0 (± 3.4) %
same,"Constipation, inhibition of GI motility",male Sprague–Dawley rats [3]; [22],"√^b,d"
same,Time by which animals developed diarrhoea,"male Sprague–Dawley rats [4]; icv 100 nmol, oral castor oil, data re-used, ref [19]",7 h
same,"Constipation, inhibition of castor oil-induced diarrhoea",male Sprague–Dawley rats [4]; [22],"√^b,d"
same,Effect on respiratory frequency,"male Sprague–Dawley rats [5]; icv 100 nmol, n = 6, hypercapnic gas mixture, relative to vehicle, data re-used, ref [19]",reduced respiratory frequency significantly
same,Effect on minute ventilation,"male Sprague–Dawley rats [5]; icv 100 nmol, n = 6, hypercapnic gas mixture, time of peak effect, data re-used, ref [19]",reduced minute ventilation
same,"Respiratory function, depression of minute ventilation","male Sprague–Dawley rats [5]; icv, hypercapnic conditions, awake rats, ref Imam et al. [19], Kuo et al. [23]","√^b,d"
H-Dmt-Pro-Tmp-Tmp-NH2 [CYX-6],"In vitro agonist or antagonist activity, MOP receptor",MOP receptor [6],Agonist^a
same,"In vitro agonist or antagonist activity, KOP receptor",KOP receptor [7],Antagonist^a
same,"Antinociception, warm water tail flick test",male Sprague–Dawley rats [1],√^b
same,"In vitro agonist or antagonist activity, DOP receptor",DOP receptor [2]; ref Cai et al. [18],Antagonist^a
same,"Respiratory function, stimulation of minute ventilation","male Sprague–Dawley rats [5]; icv, hypercapnic conditions, awake rats, ref Imam et al. [19]",√^b
CN1CC[C@]23c4c5ccc(O)c4O[C@H]2C(=O)CC[C@@]3(OCCCc2ccccc2)[C@H]1C5 [14-O-phenylpropyloxymorphone],Fold less potent for inhibition of GI transit compared with antinociception,mice,2.4 fold
"Cc1cc(O)cc(C)c1C[C@H](N)C(=O)N1CCC[C@H]1C(=O)N[C@@H](Cc1cccc2ccccc12)C(N)=O [CYX-5, H-Dmt-Pro-Nal-NH2] (H-[Dmt]-Pro-[1Nal]-NH2)",Mean (± SEM) peak tail flick latency,"male Sprague–Dawley rats [8]; icv 3 nmol, n = 6, rats",5.2 (± 0.6) s
same,Mean (± SEM) ΔLatency-AUC,"male Sprague–Dawley rats [8]; icv 3 nmol, n = 6",3.2 (± 0.9) s.h
same,Mean (± SEM) peak tail flick latency,"male Sprague–Dawley rats [8]; icv 10 nmol, n = 6, rats",4.0 (± 0.3) s
same,Mean (± SEM) ΔLatency-AUC,"male Sprague–Dawley rats [8]; icv 10 nmol, n = 6",2.1 (± 0.5) s.h
same,"Antinociception (tail flick), in words","male Sprague–Dawley rats [8]; icv 20 nmol, highest dose tolerated",moderate antinociception
same,Mean (± SEM) peak tail flick latency,"male Sprague–Dawley rats [8]; icv 20 nmol, n = 7, rats",5.5 (± 0.5) s
same,Mean (± SEM) ΔLatency-AUC,"male Sprague–Dawley rats [8]; icv 20 nmol, n = 7, significantly different from vehicle",4.8 (± 0.6) s.h
same,Mean time to peak effect (tail flick),"male Sprague–Dawley rats [8]; icv 3, 10 and 20 nmol, post-dose",1 h
same,"Antinociception, warm water tail flick test",male Sprague–Dawley rats [8]; [23],√
same,Effect of naloxone pre-treatment on antinociception,male Sprague–Dawley rats [8]; naloxone 10 mg/kg sc 10 min prior to icv 20 nmol,completely attenuated
same,Mean (± SEM) % small intestinal transit (%SIT),male Sprague–Dawley rats [9]; icv 3 nmol,68.7 (± 2.7) %
same,Mean (± SEM) % small intestinal transit (%SIT),male Sprague–Dawley rats [9]; icv 10 nmol,64.8 (± 6.8) %
same,Mean (± SEM) % small intestinal transit (%SIT),male Sprague–Dawley rats [9]; icv 20 nmol,64.4 (± 3.4) %
same,"Constipation, inhibition of GI motility",male Sprague–Dawley rats [9]; [23],√
same,Mean (± SEM) %AUC of % rats with diarrhoea (% of vehicle control),"male Sprague–Dawley rats [10]; icv 3 nmol, n = 7",72.6 (± 10.8) %AD.h
same,Cumulative stool weight-area under the curve (CSW-AUC),male Sprague–Dawley rats [10]; icv 3 nmol,11.7 (± 1.5) g.h
same,Mean (± SEM) %AUC of % rats with diarrhoea (% of vehicle control),"male Sprague–Dawley rats [10]; icv 10 nmol, n = 6",78.5 (± 7.6) %AD.h
same,Cumulative stool weight-area under the curve (CSW-AUC),male Sprague–Dawley rats [10]; icv 10 nmol,13.4 (± 4.1) g.h
same,Mean (± SEM) %AUC of % rats with diarrhoea (% of vehicle control),"male Sprague–Dawley rats [10]; icv 20 nmol, n = 6",68.4 (± 2.6) %AD.h
same,Cumulative stool weight-area under the curve (CSW-AUC),male Sprague–Dawley rats [10]; icv 20 nmol,2.5 (± 0.9) g.h
same,Time to develop diarrhoea in all animals,"male Sprague–Dawley rats [10]; icv 3, 10 and 20 nmol, oral castor oil 2.5 ml, vehicle 3 h",5 h
same,Effect on minute ventilation,"male Sprague–Dawley rats [11]; icv 20 nmol, n = 6, hypercapnic conditions (8% CO2), awake rats",significant stimulatory effect
same,Effect on tidal volume,"male Sprague–Dawley rats [11]; icv 20 nmol, n = 6, hypercapnic gas mixture",significant increase
same,Effect on respiratory frequency,"male Sprague–Dawley rats [11]; icv 20 nmol, n = 6, normal air and hypercapnic gas exposure",insignificant
same,"Respiratory function, stimulation of minute ventilation","male Sprague–Dawley rats [11]; icv, hypercapnic conditions, awake freely moving rats, √/X not defined",√
same,Ki,DOP receptor [12],121 ± 10.2 nM
same,Ki,MOP receptor [13],0.7 ± 0.08 nM
same,"In vitro agonist or antagonist activity, MOP receptor",MOP receptor [6],Agonist^a
same,"In vitro agonist or antagonist activity, KOP receptor",KOP receptor [7],Agonist^a
same,MOP receptor agonism ex vivo,MOP receptor [14],potent MOP receptor agonism
same,"In vitro agonist or antagonist activity, DOP receptor",DOP receptor [2]; ref Cai et al. [18],Antagonist^a
same,Recruitment of β-arrestin2 at MOP receptor,MOP receptor [15],lack of recruitment
same,Recruitment of β-arrestin2 at DOP receptor,DOP receptor [16],lack of recruitment
same,Recruitment of β-arrestin2 at KOP receptor,KOP receptor [17],lack of recruitment
same,half-life,[18],57.6 min
same,"Duration of postural abnormalities (flattened torso, splayed legs, ataxia)",male Sprague–Dawley rats [19]; icv 20 nmol,up to 90 min
same,"Rats with mild, intermittent, transient clinical signs of neuroexcitation",male Sprague–Dawley rats [19]; icv 20 nmol,~ 50%
same,"Maximum tolerated dose, icv","male Sprague–Dawley rats [19]; pilot study, rats",20 nmol
same,Side effects at 30 nmol icv,"male Sprague–Dawley rats [19]; preliminary experiment, icv 30 nmol, convulsions, barrel roll, wet-dog shakes, excessive alertness",pronounced neuro-excitatory side effects
